Values after ≈ are worked out from the molar mass of the structure shown. Where two headings read alike, the source gives them in different places.
How the values were obtained:
[1] = Cytotoxicity in MT-4 cells incubated without infection by HIV; assay type: cell-based; conditions: human; MT-4 cells without infection by HIV, 37° C., 5 days, MTT method; read-out: CC50 (compound concentration which causes death of 50% of the MT-4 cells)
Protocol: (§1) Virucidal test aqainst HIV:
(§2) In RPMI1640 culture medium containing 20 mM HEPES buffer solution, 10% bovine fetus serum, and 20 μg/mL gentamycin, 3×10^4 cells of MT-4 (which will be killed by infection with HIV) were infected with HIV at a rate of 0.02 HIV per cell. To the fractions of the culture, predetermined portions of a sample containing the thiadiazole derivative of the compound No. shown in Table 27 and 28 were added, and the culture fractions were incubated at 37° C. After incubation for 5 days, living cells were measured by the MTT method to derive the compound concentration (EC50) which is effective to protects 50% of the MT-4 cells from death by HIV. Separately, the MT-4 cells were incubated in the same manner without infection by HIV, and the compound concentration (CC50) which causes death of 50% of the MT-4 cells. The ratio of CC50 /EC50 is the selectivity index (S.I.).

[2] = system: HIV; assay: Virucidal test against HIV (protection of HIV-infected MT-4 cells, MTT method); assay type: cell-based; conditions: for S.I. (selectivity index, ratio CC50/EC50): CC50/EC50, MT-4 cells; for EC50: Human immunodeficiency virus 1, MT4, 120 h, read-out: EC50 (compound concentration effective to protect 50% of the MT-4 cells from death by HIV)
Protocol: as §1, §2

[3] = MT-4 cells, 0.02 HIV per cell, 37° C., 5 days, MTT method

SMILES | CC50 at 120 h [1] | S.I. (selectivity index, ratio CC50/EC50) [2] | EC50 [2] | EC50 [2, 3]
CN(C)C(=O)Oc1nsnc1-c1cc(N)ccc1Cl [Compound 21, N,N-Dimethyl [3-(5-amino-2-chlorophenyl)-1,2,5-thiadiazol-4-yl] CARBAMATE] | 36 µg/mL (≈ 121 µM) | 240 | 0.15 µg/mL (≈ 0.502 µM) | 
CCCN(C)C(=O)Oc1nsnc1-c1cc(N)ccc1Cl [Compound 22, N-Methyl-N-propyl [3-(5-amino-2-chlorophenyl)-1,2,5-thiadiazol-4-yl] carbamate] | 22 µg/mL (≈ 67.3 µM) | 1048 | 0.021 µg/mL (≈ 0.0643 µM) | 
CN(C)C(=O)Oc1nsnc1-c1c(Cl)ccc(N)c1Cl [Compound 70, N,N-dimethyl [3-(3-amino-2,6-dichlorophenyl)-1,2,5-thiadiazol-4-yl] carbamate] | 9.4 µg/mL (≈ 28.2 µM) | 362 | 0.026 µg/mL (≈ 0.078 µM) | 
CCCN(C)C(=O)Oc1nsnc1-c1c(Cl)ccc(N)c1Cl [Compound 71, N-Methyl-N-propyl [3-(3-amino-2,6-dichlorophenyl)-1,2,5-thiadiazol-4-yl] carbamate] | 4.7 µg/mL (≈ 13 µM) | 2350 | 0.002 µg/mL (≈ 0.00554 µM) | 
CCCN(C)C(=O)Oc1nsnc1-c1c(Cl)ccc(C#N)c1Cl [Compound 87, N-Methyl-N-propyl [3-(2,6-dichloro-3-cyanophenyl)-1,2,5-thiadiazol-4-yl] carbamate] | 23 µg/mL (≈ 62 µM) | 7667 | 0.003 µg/mL (≈ 0.00808 µM) | 
CCCN(C)C(=O)Oc1nsnc1-c1c(Cl)ccc(C(=O)OC)c1Cl [Compound 91, N-Methyl-N-propyl [3-(2,6-dichloro-3-methoxycarbonylphenyl)-1,2,5-thiadiazol-4-yl] carbamate] | 9.1 µg/mL (≈ 22.5 µM) | 144 | 0.063 µg/mL (≈ 0.156 µM) | 
CCCN(C)C(=O)Oc1nsnc1-c1c(Cl)ccc(C(N)=O)c1Cl [Compound 93, N-methyl-N-propyl [3-(3-carbamoyl-2,6-dichlorophenyl)-1,2,5-thiadiazol-4-yl] carbamate] | 65 µg/mL (≈ 167 µM) | 59 | 1.1 µg/mL (≈ 2.83 µM) | 
CCCN(C)C(=O)Oc1nsnc1-c1c(F)ccc(N)c1Cl [Compound 99, N-Methyl-N-propyl [3-(3-amino-2-chloro-6-fluorophenyl)-1,2,5-thiadiazole-4-yl] carbamate] | 22 µg/mL (≈ 63.8 µM) | 2750 | 0.008 µg/mL (≈ 0.0232 µM) | 
CN(C)C=Nc1nsnc1-c1c(Cl)cccc1Cl [Compound 127, N^1 -Dimethyl-N^2-[3-(2,6-dichlorophenyl)-1,2,5-thiadiazol-4-yl] formamidine] | 31 µg/mL (≈ 103 µM) | 21 |  | 1.5 µg/mL (≈ 4.98 µM)
CCCN(C)C=Nc1nsnc1-c1c(Cl)cccc1Cl [Compound 128, N^1-methyl-N^1-propyl-N^2-[3-(2,6-dichlorophenyl)-1,2,5-thiadiazol-4-yl]formamidine] | 9.2 µg/mL (≈ 27.9 µM) | 48 |  | 0.19 µg/mL (≈ 0.577 µM)
CCN(C=Nc1nsnc1-c1c(Cl)cccc1Cl)CC [Compound 130, N^1-diethyl-N^2 - [3-(2,6-dichlorophenyl)-1,2,5-thiadiazol-4-yl]formamidine] | 14 µg/mL (≈ 42.5 µM) | 1000 |  | 0.014 µg/mL (≈ 0.0425 µM)
CCN(CC)C(C)=Nc1nsnc1-c1c(Cl)cccc1Cl [Compound 131, N^1-diethyl-N^2-[3-(2,6-dichlorophenyl)-1,2,5-thiadiazol-4-yl]acetamidine] | 5.4 µg/mL (≈ 15.7 µM) | 19 |  | 0.29 µg/mL (≈ 0.845 µM)
CN(C)S(=O)(=O)Oc1nsnc1-c1c(Cl)cccc1Cl [Compound 138] | 9.9 µg/mL (≈ 27.9 µM) | 9 |  | 1.1 µg/mL (≈ 3.11 µM)
Clc1cccc(Cl)c1-c1nsnc1OCc1ccccn1 [Compound 145] | 2.7 µg/mL (≈ 7.98 µM) | 39 |  | 0.07 µg/mL (≈ 0.207 µM)
Clc1cccc(Cl)c1-c1nsnc1OCc1cccnc1 [Compound 146] | 1.9 µg/mL (≈ 5.62 µM) | 6 |  | 0.3 µg/mL (≈ 0.887 µM)
O=[N+]([O-])c1ccccc1COc1nsnc1-c1c(Cl)cccc1Cl [Compound 149] | 8.6 µg/mL (≈ 22.5 µM) | 5 |  | 1.7 µg/mL (≈ 4.45 µM)
CSCOc1nsnc1-c1c(Cl)cccc1Cl [Compound 155] | > 100 µg/mL | > 270 |  | 0.37 µg/mL (≈ 1.2 µM)
COCOc1nsnc1-c1c(Cl)cccc1Cl [Compound 156] | 43 µg/mL (≈ 148 µM) | 24 |  | 1.8 µg/mL (≈ 6.18 µM)
COCCOCOc1nsnc1-c1c(Cl)cccc1Cl [Compound 157] | 46 µg/mL (≈ 137 µM) | 128 |  | 0.36 µg/mL (≈ 1.07 µM)
COCCOc1nsnc1-c1c(Cl)cccc1Cl [Compound 159] | 11 µg/mL (≈ 36 µM) | 5 |  | 2.2 µg/mL (≈ 7.21 µM)
Clc1cccc(Cl)c1-c1nsnc1OCCBr [Compound 160, 3-(2-bromoethoxy)-4-(2,6-dichlorophenyl)-1,2,5-thiadiazole] | 4.8 µg/mL (≈ 13.6 µM) | 15 |  | 0.32 µg/mL (≈ 0.904 µM)
CCCN(C)CCOc1nsnc1-c1c(Cl)cccc1Cl [Compound 161, 3-(2,6-dichlorophenyl)-4-[2-(N-methyl-N-propylamino)ethoxy]-1,2,5-thiadiazole] | 8.3 µg/mL (≈ 24 µM) | 10 |  | 0.8 µg/mL (≈ 2.31 µM)
CCCN(C)C(=O)c1nsnc1-c1ccccc1Cl [Compound 195, N-methyl-N-propyl 4-(2-chlorophenyl)-1,2,5-thiadiazole-3-carboxamide] | 37 µg/mL (≈ 125 µM) | 25 |  | 1.5 µg/mL (≈ 5.07 µM)
CCCN(C)C(=O)Cc1nsnc1-c1ccccc1Cl [Compound 202, N-methyl-N-propyl [3-(2-chlorophenyl)-1,2,5-thiadiazol-4-yl]acetamide] | 18 µg/mL (≈ 58.1 µM) | 7 |  | 2.5 µg/mL (≈ 8.07 µM)
CN(CC#N)C(=O)Oc1nsnc1-c1c(Cl)cccc1Cl [Compound 218, N-(cyanomethyl)-N-methyl [3-(2,6-dichlorophenvl)-1,2,5-thiadiazol-4-yl] carbamate] | 64 µg/mL (≈ 186 µM) | 168 | 0.38 µg/mL (≈ 1.11 µM) | 
CN(CCC#N)C(=O)Oc1nsnc1-c1c(Cl)cccc1Cl [Compound 219, N-(2-cyanoethyl)-N-methyl [3-(2,6-dichlorophenyli-1,2,5-thiadiazol-4-yl] carbamate] | 46 µg/mL (≈ 129 µM) | 2556 | 0.018 µg/mL (≈ 0.0504 µM) | 
CN(CCO)C(=O)Oc1nsnc1-c1c(Cl)cccc1Cl [Compound 220, N-(2-Hydroxyethyl)-N-methyl [3-(2,6-dichlorophenyl)-1,2,5-thiadiazol-4-yl] carbamate] | 63 µg/mL (≈ 181 µM) | 18 | 3.5 µg/mL (≈ 10.1 µM) | 
CN(CCCC(=O)O)C(=O)Oc1nsnc1-c1c(Cl)cccc1Cl [Compound 222, N-(3-carboxypropyl)-N-methyl [3-(2,6-dichlorophenyl)-1,2,5-thiadiazol-4-yl] carbamate] | > 100 µg/mL | > 71 | 1.4 µg/mL (≈ 3.59 µM) | 
CN(CCC(N)=O)C(=O)Oc1nsnc1-c1c(Cl)cccc1Cl [Compound 223, N-(2-carbamoylethyl)-N-methyl [3-(2,6-dichlorophenyl)-1,2,5-thiadiazol-4-yl] carbamate] | > 100 µg/mL | > 38 | 2.6 µg/mL (≈ 6.93 µM) | 
CCOC(=O)CCN(C)C(=O)Oc1nsnc1-c1c(Cl)cccc1Cl [Compound 224, N-[2-(ethoxycarbonyl)ethyl]-N-methyl [3-(2,6-dichlorophenyl)-1,2,5-thiadiazol-4-yl] carbamate] | 50 µg/mL (≈ 124 µM) | 385 | 0.13 µg/mL (≈ 0.322 µM) | 

— patent publication US5948916A, “Arylthiadiazole derivative and antiviral agent containing the same” (priority 1994, dated 1999)
